Results on nine compounds are retold here after PubChem BioAssay (NCI).

“And” between values parts separate entries of the source, which are not always exact repeats. Equal values may be shown once.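 A five-concentration, 48-hour dose response in 96-well plates underlies each endpoint, interpolated linearly between surrounding concentrations. GI50 marks 50% less growth. TGI is the concentration that stops growth completely.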 A value given as a limit tells only on which side of the number the result lay.

Some test systems named below: CCRF-CEM leukemia; COLO 205 colon; EKVX NSCLC; K-562 leukemia; OVCAR-4 ovarian; RPMI-8226 leukemia; SF-295 CNS; SK-MEL-5 melanoma; SNB-19 CNS; UACC-257 melanoma.
What all share (assay): DTP human tumour cell line panel, 48 h

Broadly, the GI50 is the concentration giving 50% growth inhibition. The term TGI denotes the concentration at which net growth stops. Read a low TGI as more potent growth arrest. For `O=C1C(=O)c2c(nc3ccc(C(F)(F)F)cn23)-c2ccccc21`, the 50% growth inhibitory concentration (GI50) in the assay on CCRF-CEM leukemia is 0.39 µM; with COLO 205 colon, 1.63 µM; in the assay on EKVX NSCLC, 0.178 µM; in the assay with K-562 leukemia it was 0.175 µM; with OVCAR-4 ovarian, 0.137 µM; in the assay with RPMI-8226 leukemia, 0.169 µM. The GI50 with SF-295 CNS is 0.436 µM; in the assay with SK-MEL-5 melanoma it was 0.171 µM; in the assay with SNB-19 CNS it was 0.303 µM; in the assay with UACC-257 melanoma, 0.193 µM. The TGI in the assay on COLO 205 colon worked out at 3.52 µM; with EKVX NSCLC, 0.396 µM; with K-562 leukemia, 0.787 µM; with OVCAR-4 ovarian it was 0.271 µM; with RPMI-8226 leukemia, 0.53 µM; with SF-295 CNS, 0.855 µM. For the same compound, the total growth inhibition concentration (TGI) turned out to be 0.31 µM in the assay with SK-MEL-5 melanoma, 0.763 µM with SNB-19 CNS and 0.363 µM in the assay on UACC-257 melanoma.

Regarding `O=c1c(Cc2ccccc2)c(O)cc2n1CCC2`, the total growth inhibition concentration (TGI) with CCRF-CEM leukemia, in the assay on COLO 205 colon, in the assay with EKVX NSCLC, with K-562 leukemia, in the assay on OVCAR-4 ovarian and with RPMI-8226 leukemia was > 100 µM throughout. The TGI in the assay on SF-295 CNS, in the assay on SK-MEL-5 melanoma, with SNB-19 CNS and with UACC-257 melanoma was > 100 µM each time.

`COc1ccc2c(c1)C(=O)c1c-2c(OCCCN(C)C)nc2cc(Br)ccc12`: the GI50 in the assay with CCRF-CEM leukemia is 5.2 µM; in the assay on COLO 205 colon it was 13.8 µM; in the assay on EKVX NSCLC, 2.78 µM; in the assay with K-562 leukemia it was 6.75 µM; in the assay on OVCAR-4 ovarian it was 1.96 µM; in the assay with RPMI-8226 leukemia, 15.9 µM. Further, the GI50 with SF-295 CNS is 7.3 µM; in the assay with SK-MEL-5 melanoma, 15 µM; in the assay on SNB-19 CNS, 3.08 µM; in the assay with UACC-257 melanoma, 16.4 µM. Besides, the TGI in the assay on CCRF-CEM leukemia was 23.8 µM; with COLO 205 colon it was > 100 µM; with EKVX NSCLC, 13.5 µM; in the assay with K-562 leukemia, 23.1 µM; in the assay with OVCAR-4 ovarian it was 5.17 µM; with RPMI-8226 leukemia, 39.7 µM. For the same compound, the TGI with SF-295 CNS stood at 20.7 µM; with SK-MEL-5 melanoma it was 28.3 µM; in the assay on SNB-19 CNS, 11.8 µM; in the assay on UACC-257 melanoma, 32.9 µM.

As to `CCCCNC(c1ccc(Cl)cc1)C(O)c1ccc(Cl)cc1` (centres undefined), the GI50 is 2.49 µM with CCRF-CEM leukemia; 1.56 µM in the assay with COLO 205 colon; 2.76 µM with EKVX NSCLC; 2.11 µM in the assay on K-562 leukemia; 2.87 µM in the assay with OVCAR-4 ovarian; 2.09 µM with RPMI-8226 leukemia. The GI50 in the assay on SF-295 CNS was 1.02 µM; with SK-MEL-5 melanoma, 1.73 µM; in the assay on SNB-19 CNS, 2.09 µM; with UACC-257 melanoma it was 2.25 µM. Besides, the TGI worked out at 8.65 µM with CCRF-CEM leukemia; 3.25 µM in the assay on COLO 205 colon; 14.7 µM in the assay with EKVX NSCLC; 5.68 µM in the assay with K-562 leukemia; 13.5 µM with OVCAR-4 ovarian; 5.51 µM with RPMI-8226 leukemia. For the same compound, the total growth inhibition concentration (TGI) in the assay on SF-295 CNS is 2.44 µM; in the assay on SK-MEL-5 melanoma, 3.2 µM; in the assay with SNB-19 CNS, 5.74 µM; with UACC-257 melanoma it was 5.03 µM.

`O=c1[nH]ccc(CNC23CC4CC(CC(C4)C2)C3)c1O`: the total growth inhibition concentration (TGI) in the assay with CCRF-CEM leukemia, in the assay on COLO 205 colon, in the assay with EKVX NSCLC, with K-562 leukemia, with OVCAR-4 ovarian and in the assay with RPMI-8226 leukemia was > 100 µM throughout. In addition, the TGI with SF-295 CNS, with SK-MEL-5 melanoma, with SNB-19 CNS and with UACC-257 melanoma was > 100 µM each time.

For `O=C(c1ccccc1)C1N=NN(Cc2ccccc2[N+](=O)[O-])C1C(=O)c1ccccc1` (centres undefined), the TGI in the assay on CCRF-CEM leukemia, in the assay with COLO 205 colon, in the assay with EKVX NSCLC, in the assay with K-562 leukemia, in the assay with OVCAR-4 ovarian and with RPMI-8226 leukemia was > 100 µM in each case. Further, the TGI in the assay on SF-295 CNS, with SK-MEL-5 melanoma, with SNB-19 CNS and in the assay with UACC-257 melanoma was > 100 µM each time.

Take `O=C1NC(O)n2c(=O)[nH]c(=O)n21` (centres undefined): the concentration for total growth inhibition (TGI) in the assay with CCRF-CEM leukemia, with COLO 205 colon, in the assay with EKVX NSCLC, in the assay on K-562 leukemia, in the assay with OVCAR-4 ovarian and in the assay with RPMI-8226 leukemia was > 100 µM throughout. In addition, the TGI with SF-295 CNS, in the assay with SK-MEL-5 melanoma, in the assay with SNB-19 CNS and in the assay on UACC-257 melanoma was > 100 µM each time.

`C[C@@H]1C[C@@H]([C@H](O)CC2CC(=O)NC(=O)C2)C(=O)[C@@H](C)C1`: the 50% growth inhibitory concentration (GI50) in the assay on CCRF-CEM leukemia is 0.0958 µM; in the assay on COLO 205 colon, 0.224 µM; in the assay with EKVX NSCLC, 0.341 µM; in the assay with K-562 leukemia, 0.165 µM; with OVCAR-4 ovarian it was 0.299 µM; in the assay on RPMI-8226 leukemia, 0.451 µM. In addition, the 50% growth inhibitory concentration (GI50) in the assay with SF-295 CNS is 0.176 µM; in the assay on SK-MEL-5 melanoma, 0.199 µM; in the assay with SNB-19 CNS, 0.282 µM; with UACC-257 melanoma it was 0.248 µM. In addition, the total growth inhibition concentration (TGI) is 1.15 µM and 0.406 µM in the assay with CCRF-CEM leukemia; 2 µM and 1.47 µM in the assay with COLO 205 colon; 4.45 µM with EKVX NSCLC; 11.9 µM and 2.93 µM in the assay on K-562 leukemia; 4.97 µM and 1.2 µM in the assay on OVCAR-4 ovarian; 3.02 µM and 0.494 µM in the assay on RPMI-8226 leukemia. The TGI in the assay with SF-295 CNS is 1.19 µM and 1.69 µM; in the assay with SK-MEL-5 melanoma it was 2.18 µM and 0.494 µM; with SNB-19 CNS, 15.8 µM and > 94.6 µM; in the assay on UACC-257 melanoma, 1.65 µM and 1.03 µM.

For `O=c1c(-c2ccc3c(c2)OCO3)coc2c3c(ccc12)OCO3`, the total growth inhibition concentration (TGI) with CCRF-CEM leukemia was > 100 µM; in the assay on COLO 205 colon, > 100 µM; in the assay with EKVX NSCLC, > 100 µM; in the assay with K-562 leukemia it was > 100 µM; in the assay with OVCAR-4 ovarian, 70.6 µM; in the assay on RPMI-8226 leukemia, > 100 µM. In addition, the concentration for total growth inhibition (TGI) in the assay with SF-295 CNS is 37.1 µM; in the assay with SK-MEL-5 melanoma, > 100 µM; with SNB-19 CNS, 44.9 µM; in the assay with UACC-257 melanoma it was > 100 µM.
